Measured values as given in patent US20230015823A1, “METHODS OF ADMINISTERING VOXELOTOR” (Global Blood Therapeutics, Inc., priority 2019, published 2023).

Target: CYP3A4 (Homo sapiens, UniProt P08684)
Assay: Effect of voxelotor on PK of CYP3A4 probe substrate midazolam in healthy subjects
Conditions: healthy subjects
Protocol: During Period 1, subjects received a single dose of caffeine 100 mg, warfarin sodium 10 mg+vitamin K 10 mg, omeprazole 20 mg, and midazolam hydrochloride 2 mg on Day 1. During Period 2, subjects received voxelotor 900 mg QD on Days 1 and 2 followed by 600 mg QD on Day 3, a single dose of caffeine 100 mg, warfarin sodium 10 mg+vitamin K 10 mg, omeprazole 20 mg, and midazolam hydrochloride 2 mg on Day 4, and voxelotor 600 mg QD on Days 4 through 7.
Whole blood and plasma concentrations of voxelotor and plasma concentrations of caffeine, paraxanthine, S-warfarin, omeprazole, 5-hydroxyomeprazole, midazolam, and 1-hydroxymidazolam were determined using validated assays.

CYP3A4, sequence (P08684 whole entry): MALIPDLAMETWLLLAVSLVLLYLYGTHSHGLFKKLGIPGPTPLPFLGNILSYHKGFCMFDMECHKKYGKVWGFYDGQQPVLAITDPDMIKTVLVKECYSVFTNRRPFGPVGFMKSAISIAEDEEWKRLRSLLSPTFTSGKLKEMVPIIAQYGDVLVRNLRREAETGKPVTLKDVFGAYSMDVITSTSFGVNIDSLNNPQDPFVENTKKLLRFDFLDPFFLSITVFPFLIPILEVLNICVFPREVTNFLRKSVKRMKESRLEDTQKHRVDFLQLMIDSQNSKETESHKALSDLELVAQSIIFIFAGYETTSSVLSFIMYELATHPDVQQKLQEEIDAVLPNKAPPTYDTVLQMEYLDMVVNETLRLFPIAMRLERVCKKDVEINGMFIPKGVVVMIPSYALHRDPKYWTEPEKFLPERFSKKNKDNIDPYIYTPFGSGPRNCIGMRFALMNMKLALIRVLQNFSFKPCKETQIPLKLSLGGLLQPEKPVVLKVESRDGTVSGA

Row | SMILES | increase of overall exposure of metabolite in the presence of voxelotor (midazolam metabolite, voxelotor 900/600 mg QD) [%] | observed exposure increase with voxelotor (CYP3A4 substrate midazolam) [fold] | increase of overall exposure in the presence of voxelotor (midazolam hydrochloride 2 mg single dose, voxelotor 900/600 mg QD) [%]
1 | OCc1ncc2n1-c1ccc(Cl)cc1C(c1ccccc1F)=NC2 [1′-hydroxy-midazolam] | 75 |  | 
2 | Cc1ncc2n1-c1ccc(Cl)cc1C(c1ccccc1F)=NC2 [midazolam] |  | 1.6 | 63
